The source of these data is patent US10906897B2, “Microbiocidal heterobicyclic derivatives” (priority 2015, dated 2021).

A value given as a limit tells only on which side of the number the result lay.

The subject of data set [1] is Glomerella lagenarium (Colletotrichum lagenarium). Nature of the data set: Glomerella lagenarium (Colletotrichum lagenarium) / liquid culture (Anthracnose). In kind it is cell-based. To be noted: Colletotrichum orbiculare, growth inhibition photometrically 3-4 days after application, compared to untreated control.
Data set [2] relates to Botryotinia fuckeliana (Botrytis cinerea). Nature of the data set: Botryotinia fuckeliana (Botrytis cinerea) / liquid culture (Gray mould). In kind it is cell-based. To be noted: growth inhibition photometrically 3-4 days after application, compared to untreated control.
Data set [3] concerns Monographella nivalis (Microdochium nivale). Nature of the data set: Monographella nivalis (Microdochium nivale) / liquid culture (foot rot cereals). In kind it is cell-based. To be noted: 96 h, growth inhibition photometrically 4-5 days after application, compared to untreated control.
The subject of data set [4] is Fusarium culmorum. Nature of the data set: microbe, parasite or virus in culture. In kind it is cell-based. To be noted: read-out: control of Fusarium culmorum.

As to `CC1(C)N=C(c2cnc3c(F)cccn23)c2cccc(Cl)c2C1Br` (centres unmarked), the melting point (commonly the temperature of the solid-liquid transition) lay within 213 to 214 °C.
Still for that read-out and setting: with `CC1(C)N=C(c2cnc3c(F)cccn23)c2cccc(F)c2C1Br` (centres unmarked) the figure was 211 to 212 °C.
On the same count and under the same terms, with `CC1(C)N=C(c2cnc3c(F)cccn23)c2cccc(F)c2C1=O` the figure was 160 to 161 °C; with `CC1(C)N=C(c2cnc3ccc(O)cn23)c2cccc(F)c2C1(C)C`, 321 to 322 °C; with `CC1(C)N=C(c2cnc3c(Br)cccn23)c2cccc(F)c2C1Br` (centres unmarked), 217 to 218 °C.
`CC1(C)N=C(c2cnc3c(Br)cccn23)c2cccc(F)c2C1O` (centres unmarked) had a melting point of 204 to 205 °C.
On the same count and under the same terms, with `CC1(C)N=C(c2cnc3c(Br)cccn23)c2cccc(F)c2C1=O` the figure was 146 to 147 °C; with `CC1(C)N=C(c2cnc3ccc(F)cn23)c2cccc(F)c2C1(C)C`, 200 to 202 °C; with `CC1(C)N=C(c2cnc3c(Br)cccn23)c2ccccc2C1=O`, 204 to 205 °C.
`CC1(C)N=C(c2cnc3c(Br)cccn23)c2ccccc2C1(F)F` returned a melting point of 173 °C.
The same measure, in the same setting: in the case of `CC1(C)Cc2c(Cl)cccc2C(c2cnc3ccc(F)cn23)=N1` it was 142 to 143 °C; in that of `CC1(C)Cc2ccccc2C(c2cnc3cc(I)ccn23)=N1`, 190 to 193 °C.
Same read-out and setting: with `Cc1cccn2ncc(C3=NC(C)(C)C(=O)c4c(F)cccc43)c12` the figure was 141 to 143 °C; with `CC1(C)N=C(c2cnn3cccc(Br)c23)c2ccccc2C1=O`, 148 to 151 °C; with `Cc1ccc2c(C3=NC(C)(C)C(F)(F)c4ccccc43)cnn2c1C`, 160 to 161 °C.
In data set [1], `CC1(C)N=C(c2cnc3ccccn23)c2cc(F)ccc2C1(C)C` [Compound E-2, 7-fluoro-1-imidazo[1,2-a]pyridin-3-yl-3,3,4,4-tetramethyl-isoquinoline] displayed an inhibition of growth at 20 ppm of no less than 80%.
Same read-out and setting: with `CC1(C)Cc2c(Cl)cccc2C(c2cnc3ccccn23)=N1` [Compound E-3, 5-chloro-1-imidazo[1,2-a]pyridin-3-yl-3,3-dimethyl-4H-isoquinoline] the figure was no less than 80%.
As for `CC1(C)N=C(c2cnc3c(OC(F)F)cccn23)c2cccc(F)c2C1(C)C` [Compound E-7, 1-[8-(difluoromethoxy)imidazo [1,2-a]pyridin-3-yl]-5-fluoro-3,3,4,4-tetramethyl-isoquinoline], the melting point lay in the range of 121 to 122 °C. The compound also had an inhibition of growth at 20 ppm in data set [2] of no less than 80%. For the same compound, in data set [1], the inhibition of growth at 20 ppm was no less than 80%.
For `CC1(C)Cc2c(F)cccc2C(c2cnc3c(F)cccn23)=N1` [Compound E-10, 5-fluoro-1-(8-fluoroimidazo[1,2-a]pyridin-3-yl)-3,3-dimethyl-4H-isoquinoline], the inhibition of growth at 20 ppm in data set [2] and in data set [1] was no less than 80% each time.
`CC1(C)Cc2c(Cl)cccc2C(c2cnc3c(F)cccn23)=N1` [Compound E-11, 5-chloro-1-(8-fluoroimidazo[1,2-a]pyridin-3-yl)-3,3-dimethyl-4H-isoquinoline]: the melting point lay in the range of 122 to 123 °C. In data set [2], this compound gave an inhibition of growth at 20 ppm of no less than 80%. This compound also displayed an inhibition of growth at 20 ppm in data set [1] of no less than 80%.
`CC1(C)N=C(c2cnc3c(F)cccn23)c2cccc(F)c2C1O` (centres unmarked) [Compound E-14, 5-fluoro-1-(8-fluoroimidazo[1,2-a]pyridin-3-yl)-3,3-dimethyl-4H-isoquinolin-4-ol]: the melting point worked out at 219 °C. The inhibition of growth at 20 ppm in data set [1] was no less than 80%.
`CC1(C)Cc2c(Cl)cccc2C(c2cnc3c(OC(F)F)cccn23)=N1` [Compound E-15, 5-chloro-1-[8-(difluoromethoxy)imidazo [1,2-a]pyridin-3-yl]-3,3-dimethyl-4H-isoquinoline] yielded a melting point of 114 to 115 °C. This compound also showed an inhibition of growth at 20 ppm in data set [3] of no less than 80%.
In turn, `CC1(C)Cc2c(F)cccc2C(c2cnc3c(Br)cccn23)=N1` [Compound E-16, 1-(8-bromoimidazo[1,2-a]pyridin-3-yl)-5-fluoro-3,3-dimethyl-4H-isoquinoline] gave a melting point of 179 to 181 °C. The compound further gave an inhibition of growth at 20 ppm in data set [1] of no less than 80%.
For `CSc1cccn2c(C3=NC(C)(C)Cc4c(F)cccc43)cnc12` [Compound E-17, 5-fluoro-3,3-dimethyl-1-(8-methylsulfanyl-imidazo[1,2-a]pyridin-3-yl)-4H-isoquinoline], in that order: 119 to 120 °C and no less than 80%.
`CC1(C)N=C(c2cnc3c(F)cccn23)c2cccc(F)c2C1(F)F` [Compound E-19, 4,4,5-trifluoro-1-(8-fluoroimidazo[1,2-a]pyridin-3-yl)-3,3-dimethyl-isoquinoline] displayed a melting point of 145 to 146 °C. The inhibition of growth at 20 ppm in data set [2] is no less than 80%. Besides, the inhibition of growth at 20 ppm in data set [1] is no less than 80%.
The compound `C#Cc1cccn2c(C3=NC(C)(C)C(C)(C)c4c(F)cccc43)cnc12` [Compound E-23, 1-(8-ethynylimidazo[1,2-a]pyridin-3-yl)-5-fluoro-3,3,4,4-tetramethyl-isoquinoline] showed a melting point of 169 to 170 °C. In addition, the inhibition of growth at 20 ppm in data set [2] was no less than 80%.
The compound `COc1cccn2c(C3=NC(C)(C)C(C)(C)c4c(F)cccc43)cnc12` [Compound E-24, 5-fluoro-1-(8-methoxyimidazo[1,2-a]pyridin-3-yl)-3,3,4,4-tetramethyl-isoquinoline] showed a melting point of 130 °C. Besides, the inhibition of growth at 20 ppm in data set [2] is no less than 80%. The inhibition of growth at 20 ppm in data set [1] was no less than 80%. In data set [3], this compound had an inhibition of growth at 20 ppm of no less than 80%.
Regarding `CC1(C)N=C(c2cnc3c(O)cccn23)c2cccc(F)c2C1(C)C` [Compound E-27, 3-(5-fluoro-3,3,4,4-tetramethyl-1-isoquinolyl)imidazo[1,2-a]pyridin-8-ol], the melting point is 271 to 272 °C. Further, the inhibition of growth at 20 ppm in data set [2] was no less than 80%. For the same compound, the inhibition of growth at 20 ppm in data set [1] was no less than 80%.
Take `Cc1cccc2ncc(C3=NC(C)(C)C(C)(C)c4c(F)cccc43)n12` [Compound E-30, 5-fluoro-3,3,4,4-tetramethyl-1-(5-methylimidazo[1,2-a]pyridin-3-yl)isoquinoline]: the melting point lay in the range of 139 to 140 °C. In data set [2], this compound registered an inhibition of growth at 20 ppm of no less than 80%. The compound further yielded an inhibition of growth at 20 ppm in data set [1] of no less than 80%.
`CC1(C)N=C(c2cnc3c(Cl)cccn23)c2cccc(F)c2C1(C)C` [Compound E-32, 1-(8-chloroimidazo[1,2-a]pyridin-3-yl)-5-fluoro-3,3,4,4-tetramethyl-isoquinoline] gave a melting point of 167 to 168 °C. Besides, in data set [2], the inhibition of growth at 20 ppm was no less than 80%. In data set [1], this compound yielded an inhibition of growth at 20 ppm of no less than 80%. For the same compound, the inhibition of growth at 20 ppm in data set [4] is no less than 80%.
Consider `Cc1nc2c(C)cccn2c1C1=NC(C)(C)C(C)(C)c2c(F)cccc21` [Compound E-40, 1-(2,8-dimethylimidazo[1,2-a]pyridin-3-yl)-5-fluoro-3,3,4,4-tetramethyl-isoquinoline], for which the inhibition of growth at 20 ppm in data set [2] and in data set [1] was no less than 80% throughout.
In turn, `CC1(C)N=C(c2cnc3cc(C#N)ccn23)c2cccc(F)c2C1(C)C` [Compound E-46, 3-(5-fluoro-3,3,4,4-tetramethyl-1-isoquinolyl)imidazo[1,2-a]pyridine-7-carbonitrile] returned a melting point of 193 to 194 °C. The inhibition of growth at 20 ppm in data set [2] was no less than 80%. This compound came in with an inhibition of growth at 20 ppm in data set [1] of no less than 80%.
For `Cc1ccn2c(C3=NC(C)(C)C(C)(C)c4c(F)cccc43)cnc2c1Cl` [Compound E-47, 1-(8-chloro-7-methyl-imidazo[1,2-a]pyridin-3-yl)-5-fluoro-3,3,4,4-tetramethyl-isoquinoline], the melting point is 185 to 186 °C. Moreover, the inhibition of growth at 20 ppm in data set [2] is no less than 80%. In data set [1], this compound registered an inhibition of growth at 20 ppm of no less than 80%. For the same compound, in data set [4], the inhibition of growth at 20 ppm is no less than 80%.
In turn, `COc1ccn2c(C3=NC(C)(C)C(C)(C)c4c(F)cccc43)cnc2c1` [Compound E-48, 5-fluoro-1-(7-methoxyimidazo[1,2-a]pyridin-3-yl)-3,3,4,4-tetramethyl-isoquinoline] came in with a melting point of 139 to 140 °C. Moreover, in data set [2], the inhibition of growth at 20 ppm is no less than 80%. The compound further had an inhibition of growth at 20 ppm in data set [1] of no less than 80%.
`CC1(C)N=C(c2cnc3cc(O)ccn23)c2cccc(F)c2C1(C)C` [Compound E-49, 3-(5-fluoro-3,3,4,4-tetramethyl-1-isoquinolyl)imidazo[1,2-a]pyridin-7-ol]: the melting point lay in the range of 246 to 247 °C. Also, in data set [2], the inhibition of growth at 20 ppm is no less than 80%. Besides, in data set [1], the inhibition of growth at 20 ppm was no less than 80%.
As to `CC1(C)Cc2c(Br)cccc2C(c2cnn3ccccc23)=N1` [Compound E-60, 5-bromo-3,3-dimethyl-1-pyrazolo[1,5-a]pyridin-3-yl-4H-isoquinoline], in data set [2], the inhibition of growth at 20 ppm is no less than 80%.
As for `Cc1nn2ccccc2c1C1=NC(C)(C)C(C)(C)c2c(F)cccc21` [Compound E-62, 5-fluoro-3,3,4,4-tetramethyl-1-(2-methylpyrazolo[1,5-a]pyridin-3-yl)isoquinoline], the inhibition of growth at 20 ppm in data set [2] and in data set [1] was no less than 80% each time.
Regarding `Cc1cccn2ncc(C3=NC(C)(C)C(=O)c4ccccc43)c12` [Compound E-68, 3,3-dimethyl-1-(4-methylpyrazolo[1,5-a]pyridin-3-yl)isoquinolin-4-one], the melting point was in the range of 140 to 141 °C. The inhibition of growth at 20 ppm in data set [2] is no less than 80%.
For `Cc1cccn2ncc(C3=NC(C)(C)C(=O)c4cc(F)ccc43)c12` [Compound E-75, 6-fluoro-3,3-dimethyl-1-(4-methylpyrazolo[1,5-a]pyridin-3-yl)isoquinolin-4-one] the same measures were 180 to 183 °C and no less than 80%.
